Experimental data: ChEMBL document CHEMBL4251583, “Quinoxaline: An insight into the recent pharmacological advances” (Eur J Med Chem, 2018)
In brackets after ≈: the same amount, converted by molar mass.

Columns and labels:
Rattus norvegicus [1] = test: Antiinflammatory activity in carrageenan-induced paw edema Wistar rat model assessed as protection against edema formation up to 2000 mg/kg, po measured 3 hrs post dose relative to control; type: functional
Pseudomonas aeruginosa = test: Antibacterial activity against Pseudomonas aeruginosa ATCC 27853 after 18 hrs by broth microdilution method; type: functional; conditions: ATCC 27853, 18 h
[2] = tested on: Mycobacterium tuberculosis; test: Antitubercular activity against Mycobacterium tuberculosis H37Rv after 5 days by MABA method; type: functional; conditions: 120 h
Salmonella typhimurium = test: Antibacterial activity against […] ATCC 14028 after 18 hrs by broth microdilution method; type: functional, Salmonella enterica subsp. enterica serovar Typhimurium; conditions: Salmonella enterica, ATCC 14028, 18 h
Proteus vulgaris = test: Antibacterial activity against Proteus vulgaris ATCC 29905 after 18 hrs by broth microdilution method; type: functional; conditions: ATCC 29905, 18 h
Escherichia coli = test: Antibacterial activity against Escherichia coli ATCC 25922 after 18 hrs by broth microdilution method; type: functional; conditions: ATCC 25922, 18 h
Staphylococcus aureus = test: Antibacterial activity against Staphylococcus aureus ATCC 25923 after 18 hrs by broth microdilution method; type: functional; conditions: ATCC 25923, 18 h
Plasmodium falciparum [3] = test: Antiplasmodial activity against Plasmodium falciparum K1 infected in human erythrocytes preincubated for 24 hrs followed by [3H]hypoxanthine addition measured after 24 hrs by scintillation counting; type: functional, organism-based
[4] = Selectivity index, ratio of IC50 for human KB cells to IC50 for Plasmodium falciparum K1 infected in human erythrocytes; type: toxicity, cell-based; conditions: read-out: Ratio IC50
Rattus norvegicus [5] = test: Antiinflammatory activity in carrageenan-induced paw edema rat model assessed as inhibition of carrageenan-induced edema relative to control; type: functional
WI-38 = test: Cytotoxicity against human WI38 cells assessed as cell growth inhibition after 48 hrs by SRB assay; type: cell-based; conditions: WI-38, 48 h
[6] = Therapeutic index, ratio of CC50 for human MT4 cells to EC50 for HIV1 infected in human MT4 cells; type: toxicity, cell-based; conditions: uninfected versus HIV1-infected, read-out: Ratio EC50
SK-N-SH = test: Antiproliferative activity against human SK-N-SH cells after 72 hrs by MTT assay; type: functional, cell-based
IMR-32 = test: Antiproliferative activity against human IMR32 cells after 72 hrs by MTT assay; type: functional, cell-based; conditions: IMR-32, 72 h
Rattus norvegicus [7] = test: Antiinflammatory activity in carrageenan-induced paw edema Fisher 344 rat model assessed as protection against carrageenan-induced edema at 0.01 mmol/kg, ip administered simultaneously with carrageenan measured at 3.5 hrs post carrageenan injection relative to control; type: functional; conditions: Fisher 344, ip
Plasmodium falciparum [8] = test: Antiplasmodial activity against chloroquine-resistant Plasmodium falciparum FCR-3 infected in human erythrocytes after 3 days by [3H]-hypoxanthine incorporation assay; type: functional, organism-based; conditions: FCR-3/Gambia

Cc1nc2ccccc2nc1CCC(=O)N/N=C/c1c[nH]c2ccccc12
inhibition (INH) (Rattus norvegicus [1]): 55.3 - 65.9%

O=c1[nH]c2ccccc2[nH]/c1=N/N=C/[C@@H]1O[C@H](CO)[C@@H](O[C@H]2O[C@H](CO)[C@@H](O)[C@H](O)[C@H]2O)[C@H](O)[C@H]1O
MIC (Pseudomonas aeruginosa): 2.07 µM (≈ 1.06 µg/mL)
MIC [2]: 0.65 µM (≈ 0.333 µg/mL)
MIC (Salmonella typhimurium): 2.07 µM (≈ 1.06 µg/mL)
MIC (Proteus vulgaris): 2.07 µM (≈ 1.06 µg/mL)
MIC (Escherichia coli): 2.07 µM (≈ 1.06 µg/mL)
MIC (Staphylococcus aureus): 2.07 µM (≈ 1.06 µg/mL)

N#Cc1c(-c2ccco2)[n+]([O-])c2ccccc2[n+]1[O-]
IC50 (Plasmodium falciparum [3]): 0.63 µM
selectivity ratio [4]: 10.3

Cc1nc2ccccc2nc1CCC(=O)N/N=C/c1ccccc1
inhibition (INH) (Rattus norvegicus [1]): 55.3 - 65.9%

COc1ccc(/C=N/N=c2/[nH]c3ccc(C)cc3nc2CCC(=O)O)cc1
inhibition (INH) (Rattus norvegicus [5]): 69.85%

CC(C)Cc1ccc(C(C)C(=O)O)cc1 (stereo not given) [IBUPROFEN]
inhibition (INH) (Rattus norvegicus [1]): 73.5%

COc1ccc(/C=N/N=c2/[nH]c3ccccc3nc2CCC(=O)O)cc1
inhibition (INH) (Rattus norvegicus [5]): 66.04%

O=c1[nH]c2ccccc2[nH]/c1=N/N=C/[C@@H]1O[C@H](CO)[C@@H](O[C@@H]2O[C@H](CO)[C@H](O)[C@H](O)[C@H]2O)[C@H](O)[C@H]1O
MIC (Pseudomonas aeruginosa): 2.07 µM (≈ 1.06 µg/mL)
MIC [2]: 0.65 µM (≈ 0.333 µg/mL)
MIC (Salmonella typhimurium): 2.07 µM (≈ 1.06 µg/mL)
MIC (Proteus vulgaris): 2.07 µM (≈ 1.06 µg/mL)
MIC (Escherichia coli): 2.07 µM (≈ 1.06 µg/mL)
MIC (Staphylococcus aureus): 2.07 µM (≈ 1.06 µg/mL)

Brc1ccc2nc(N3CCOCC3)c3nnnn3c2c1
IC50 (WI-38): > 100 µg/mL

[N-]=[N+]=Nc1nc2cc(Br)ccc2nc1Cl
IC50 (WI-38): > 100 µg/mL

COc1ccc2c(c1)[n+]([O-])c(C#N)c(-c1ccco1)[n+]2[O-]
IC50 (Plasmodium falciparum [3]): 0.28 µM

Brc1ccc2c(c1)n1nnnc1c1nnnn21
IC50 (WI-38): > 100 µg/mL

Cc1cc2ncc(=O)n(CC(O)CO)c2cc1C (stereo not given)
selectivity ratio [6]: 73

O=[N+]([O-])c1ccc(C2OC2c2cnc3ccccc3n2)o1 (stereo not given)
IC50 (SK-N-SH): 3.9 µM
IC50 (IMR-32): 5 µM

Cc1nc2ccccc2nc1CCC(=O)N/N=C/c1ccc(Cl)cc1
inhibition (INH) (Rattus norvegicus [1]): 55.3 - 65.9%

O=c1[nH]c2ccccc2[nH]/c1=N/N=C/[C@@H]1O[C@H](CO)[C@@H](O)[C@H](O)[C@H]1O
MIC (Pseudomonas aeruginosa): 2.07 µM (≈ 0.725 µg/mL)
MIC [2]: 0.65 µM (≈ 0.228 µg/mL)
MIC (Salmonella typhimurium): 2.07 µM (≈ 0.725 µg/mL)
MIC (Proteus vulgaris): 2.07 µM (≈ 0.725 µg/mL)
MIC (Escherichia coli): 2.07 µM (≈ 0.725 µg/mL)
MIC (Staphylococcus aureus): 2.07 µM (≈ 0.725 µg/mL)

Brc1ccc2nc(N3CCCCC3)c3nnnn3c2c1
IC50 (WI-38): > 100 µg/mL

COc1ccc2nc(C)c(-c3cc(-c4cc(OC)c(OC)c(OC)c4)nc(N)n3)nc2c1
inhibition in vivo at 10 µmol/kg (Rattus norvegicus [7]): 41%

O=c1[nH]c2ccccc2[nH]/c1=N/N=C/[C@@H]1O[C@H](CO)[C@@H](O)[C@H](O)[C@@H]1O
MIC (Pseudomonas aeruginosa): 2.07 µM (≈ 0.725 µg/mL)
MIC [2]: 0.65 µM (≈ 0.228 µg/mL)
MIC (Salmonella typhimurium): 2.07 µM (≈ 0.725 µg/mL)
MIC (Proteus vulgaris): 2.07 µM (≈ 0.725 µg/mL)
MIC (Escherichia coli): 2.07 µM (≈ 0.725 µg/mL)
MIC (Staphylococcus aureus): 2.07 µM (≈ 0.725 µg/mL)

Cc1nc2ccccc2nc1CCC(=O)N/N=C/c1ccc(N(C)C)cc1
inhibition (INH) (Rattus norvegicus [1]): 55.3 - 65.9%

Cc1nc2ccccc2nc1CCC(=O)N/N=C/c1ccco1
inhibition (INH) (Rattus norvegicus [1]): 55.3 - 65.9%

c1ccc2nccnc2c1 [QUINOXALINE]
IC50 (SK-N-SH): 4.6 µM
IC50 (IMR-32): 13 µM

Cc1c(C(=O)/C=C/c2ccc3ccccc3c2)[n+]([O-])c2ccccc2[n+]1[O-]
IC50 (Plasmodium falciparum [8]): 5.8 µM

Cc1nc2ccccc2nc1CCC(=O)N/N=C/c1ccc(O)cc1
inhibition (INH) (Rattus norvegicus [1]): 55.3 - 65.9%

COc1cc(/C=C/C(=O)c2c(C)[n+]([O-])c3ccccc3[n+]2[O-])cc(OC)c1OC
IC50 (Plasmodium falciparum [8]): 6.2 µM

COc1ccc2c(c1)c(CC(=O)O)c(C)n2C(=O)c1ccc(Cl)cc1 [INDOMETHACIN]
inhibition (INH) (Rattus norvegicus [5]): 79.5%
inhibition in vivo at 10 µmol/kg (Rattus norvegicus [7]): 47%
